Where two headings read alike, the source gives them in different places.
Assays:
Assay in all cases: cells
Parameters in all cases: species or system NCI-60 human tumour cell lines; NCI-60 five-dose growth inhibition screen, sulforhodamine B protein stain
EKVX = conditions: Homo sapiens, EKVX, 48 h
Method: (§1) All the newly synthesised 28 compounds were selected for single-dose testing. NCI60 single-dose testing is performed in all 60 cell lines according to the reported assay (National Cancer Institute, https://dtp.cancer.gov/) (National Cancer Institute https://dtp.cancer.gov/discovery_development/nci-60/), compounds were dissolved in DMSO: glycerol […] and are stored in a −70 °C freezer. The prepared compounds were added at single concentration of 1 0^−5 M and the culture was incubated for 48 h. End point determinations were made with a protein binding dye, sulforhodamine B (SRB). The human tumour cell lines were derived from nine different cancer types: leukaemia, melanoma, lung, colon, central nervous system (CNS), ovarian, renal, prostate, and breast cancers. Dose–response curves for these compounds were created by plotting the percentage growth (PGs or % growth) against log10 of the corresponding concentration for every cell line. Three response parameters, GI50 (Median Growth Inhibitory Concentration), TGI (Total Growth Inhibitory Concentration), and LC50 (Median Lethal Concentration) were calculated[54] (National Cancer Institute, https://dtp.cancer.gov/discovery_development/nci-60/) (National Cancer Institute, https://dtp.cancer.gov/)[55] for compounds 5a and 6a. […] Furthermore, the average sensitivity of all cell lines towards the compound is termed as the full panel mean graph midpoints (MG-MID). The ratio obtained by dividing the full panel mean graph midpoints (MG-MID) concentration by the individual subpanel MG-MID concentrations (obtained as the average sensitivity of all cell lines of a particular subpanel towards the test compound) is considered a criterion for the compound selectivity towards the corresponding cell line. Ratios greater than 6 indicate high selectivity while ratios between 3 and 6 refer to moderate selectivity whereas compounds not meeting either of these criteria were rated non-selective[56].

SR = conditions: Homo sapiens, SR, 48 h
Method: as §1

OVCAR-5 = conditions: Homo sapiens, OVCAR-5, 48 h
Method: as §1

HOP-62 = conditions: Homo sapiens, HOP-62, 48 h
Method: as §1

SF-268 = conditions: Homo sapiens, SF-268, 48 h
Method: as §1

DU-145 = conditions: Homo sapiens, DU-145, 48 h
Method: as §1

SN12C = conditions: Homo sapiens, SN12C, 48 h
Method: as §1

OVCAR-3 = conditions: Homo sapiens, OVCAR-3, 48 h
Method: as §1

786-0 = conditions: Homo sapiens, 786-0, 48 h
Method: as §1

MOLT-4 = conditions: Homo sapiens, MOLT-4, 48 h
Method: as §1

NCI-H226 = conditions: Homo sapiens, NCI-H226, 48 h
Method: as §1

M14 = conditions: Homo sapiens, M14, 48 h
Method: as §1

CAKI-1 = conditions: Homo sapiens, CAKI-1, 48 h
Method: as §1

HS 578T = conditions: Homo sapiens, Hs-578T, 48 h
Method: as §1

HCT-116 = conditions: Homo sapiens, HCT-116, 48 h
Method: as §1

RXF 393 = conditions: Homo sapiens, RXF 393, 48 h
Method: as §1

SW-620 = conditions: Homo sapiens, SW-620, 48 h
Method: as §1

## N=C(NO)C1=C(N)Oc2c(ccc3ccccc23)C1c1ccccc1 (stereo not shown) [5a, 2-Amino-4-phenyl-N-hydroxy-4H-benzo[h]chromene-3-carboxamidine]
EKVX; read-out: GI50 5a
  GI50: 0.82 µM
SR; read-out: GI50 5a
  GI50: 100 nM
OVCAR-5
  GI50: 610 nM
HOP-62; read-out: GI50 5a
  GI50: 380 nM
SF-268; read-out: GI50 5a
  GI50: 1320 nM
DU-145; read-out: GI50 5a
  GI50: 460 nM
SN12C; read-out: GI50 5a
  GI50: 530 nM
OVCAR-3; read-out: GI50 5a
  GI50: 180 nM
786-0; read-out: GI50 5a
  GI50: 560 nM
MOLT-4; read-out: GI50 5a
  GI50: 430 nM
NCI-H226; read-out: GI50 5a
  GI50: 8.01 µM
M14; read-out: GI50 5a
  GI50: 130 nM
CAKI-1; read-out: GI50 5a
  GI50: 100 nM
HS 578T; read-out: GI50 5a
  GI50: 230 nM
HCT-116; read-out: GI50 5a
  GI50: 410 nM
RXF 393; read-out: GI50 5a
  GI50: 200 nM
SW-620; read-out: GI50 5a
  GI50: 170 nM

## CC(=O)NC1=C(C#N)C(c2ccccc2)c2ccc3ccccc3c2O1 (stereo not shown) [6a, N-(3-Cyano-4-phenyl-4H-benzo[h]chromen-2-yl)acetamide]
EKVX; read-out: GI50 6a
  GI50: 49.9 µM
SR; read-out: GI50 6a
  GI50: 470 nM
OVCAR-5; read-out: GI50 6a
  GI50: 2100 nM
HOP-62; read-out: GI50 6a
  GI50: 690 nM
SF-268; read-out: GI50 6a
  GI50: 930 nM
DU-145; read-out: GI50 6a
  GI50: 730 nM
SN12C; read-out: GI50 6a
  GI50: 700 nM
OVCAR-3; read-out: GI50 6a
  GI50: 340 nM
786-0; read-out: GI50 6a
  GI50: 490 nM
MOLT-4; read-out: GI50 6a
  GI50: 490 nM
NCI-H226; read-out: GI50 6a
  GI50: 1.85 µM
M14; read-out: GI50 6a
  GI50: 560 nM
CAKI-1; read-out: GI50 6a
  GI50: 340 nM
HS 578T; read-out: GI50 6a
  GI50: 360 nM
HCT-116; read-out: GI50 6a
  GI50: 430 nM
RXF 393; read-out: GI50 6a
  GI50: 270 nM
SW-620; read-out: GI50 6a
  GI50: 410 nM
